Bridge positions count the residues as written; N and C are the ends. Ends that are not written are not given here. Peptide text beside a SMILES is read from it.
What was measured:
[1] = target: αvβ3 integrin (Homo sapiens, UniProt P05106+P06756); assay: Inhibition of αvβ3-mediated attachment of IMR-90 cells to vitronectin; format: cell-based; parameters: endogenous in cells; host or cells: IMR-90 cells
Procedure: FIG. 13—[…] attachment of IMR-90 cells to vitronectin. The cells that bound were determined as described herein.
(§1) Cell lines expressing different integrins were used to examine peptide inhibition of integrin function. A human melanoma cell line, C8161, a fibroblast cell line, WI-38, and an osteosarcoma cell line, MG-63 (described by Seftor et al., Canc. Res., 53:3411–3415 (1993); Vogel et al., J. Biol. Chem., 265:5934–5937 (1990); and Pytela et al. (1985), supra, respectively, each of which is incorporated herein by reference) attach to fibronectin through α5β1 integrin, as does B2/α27, a CHO cell line transfected with human α5. B2/C1, the control parental CHO line (Bauer et al., J. Cell. Biol. 116:477–487 (1992), which is incorporated herein by reference), attaches via […]. CHO cells C11 and NIH 3T3 cells express the endogenous Chinese hamster and mouse α5β1 integrins, respectively. The human melanoma cells, A375-M, attach to fibronectin through both α5β1 and α4β1 integrins (Mould et al., J. Biol. Chem. 265:4020–4024 (1990), which is incorporated herein by reference). […]
(§2) Cell lines expressing fibronectin-binding integrins were used to determine peptide activities against these integrins in the cell attachment assay described by Ruoslahti et al., Meth. […] Bound cells were quantitated by staining with 0.1% amido black.

[2] = system: α5β1 integrin; assay: Inhibition of α5β1-mediated cell attachment to fibronectin; format: cell-based, human
From the text: Cell lines expressing different integrins were used to examine peptide inhibition of integrin function. A human melanoma cell line, C8161, a fibroblast cell line, WI-38, and an osteosarcoma cell line, MG-63 (described by Seftor et al., Canc. Res., 53:3411–3415 (1993); Vogel et al., J. Biol. Chem., 265:5934–5937 (1990); and Pytela et al. (1985), supra, respectively, each of which is incorporated herein by reference) attach to fibronectin through α5β1 integrin, as does B2/α27, a CHO cell line transfected with human α5. B2/C1, the control parental CHO line (Bauer et al., J. Cell. Biol. 116:477–487 (1992), which is incorporated herein by reference), attaches via […]. CHO cells C11 and NIH 3T3 cells express the endogenous Chinese hamster and mouse α5β1 integrins, respectively. The human melanoma cells, A375-M, attach to fibronectin through both α5β1 and α4β1 integrins (Mould et al., J. Biol. Chem. 265:4020–4024 (1990), which is incorporated herein by reference). CHO cell line B2/v7 express the αvβ1 integrin (Zhang et al., J. Cell. Biol. 122:235–242 (1993), which is incorporated herein by reference). The vitronectin-binding integrins […] and αvβ3 were assayed using the cell line HT-29 and IMR-90, respectively (Koivunen et al., J. Biol. Chem. 268: 20205–20210 (1993)).
(§3) Cell lines expressing fibronectin-binding integrins were used to determine peptide activities against these integrins in the cell attachment assay described by Ruoslahti et al., Meth. Enzymol., 144:803–831 (1982), which is incorporated herein by reference. Human plasma fibronectin was iodinated as described by Morla and Ruoslahti, J. Cell Biol., 118:421–429 (1992), which is incorporated herein by reference. Vitronectin was obtained from Telios Pharmaceuticals (San Diego, Calif.). […] Peptide was coated on plastic by incubating at 37° C. for 2 hours in phosphate buffered saline containing 0.25% glutaraldehyde to crosslink the peptide. Free binding sites on the plastic were blocked using BSA. Approximately 1×10^5 cells per well were allowed to attach for 1 hour in the presence or absence of competing peptides. Bound cells were quantitated by staining with 0.1% amido black.
Inhibition of cell attachment mediated by either fibronectin- or vitronectin-binding integrins was performed to determine peptide specificity in a biologically relevant system. The assays and cell lines were performed as described above. FIGS. 5 and 6 show the results of cell attachment mediated by the fibronectin binding integrins α5β1 and αvβ1.

[3] = target: T1, α5β1 integrin (Mus musculus, UniProt P09055+P11688); assay: Inhibition of attachment of NIH 3T3 cells to fibronectin; format: cell-based; details: mouse NIH 3T3 cells
T1 construct: CHO cells C11 and NIH 3T3 cells express the endogenous Chinese hamster and mouse α5β1 integrins, respectively; endogenous in cells; host or cells: NIH 3T3 cells
From the text: as §1, with “reference). CHO cell line B2/v7 express the αvβ1 integrin (Zhang et al., J. Cell. Biol. 122:235–242 (1993), which is incorporated herein by reference).” for “reference).”
as §2

[4] = system: α5β1 integrin; assay: Cell attachment to immobilized […] peptide (B2/α27 vs B2/Cl cells); format: cell-based, human
From the text: as §3
Target sequence in this assay (P08648 42-894 limits assumed): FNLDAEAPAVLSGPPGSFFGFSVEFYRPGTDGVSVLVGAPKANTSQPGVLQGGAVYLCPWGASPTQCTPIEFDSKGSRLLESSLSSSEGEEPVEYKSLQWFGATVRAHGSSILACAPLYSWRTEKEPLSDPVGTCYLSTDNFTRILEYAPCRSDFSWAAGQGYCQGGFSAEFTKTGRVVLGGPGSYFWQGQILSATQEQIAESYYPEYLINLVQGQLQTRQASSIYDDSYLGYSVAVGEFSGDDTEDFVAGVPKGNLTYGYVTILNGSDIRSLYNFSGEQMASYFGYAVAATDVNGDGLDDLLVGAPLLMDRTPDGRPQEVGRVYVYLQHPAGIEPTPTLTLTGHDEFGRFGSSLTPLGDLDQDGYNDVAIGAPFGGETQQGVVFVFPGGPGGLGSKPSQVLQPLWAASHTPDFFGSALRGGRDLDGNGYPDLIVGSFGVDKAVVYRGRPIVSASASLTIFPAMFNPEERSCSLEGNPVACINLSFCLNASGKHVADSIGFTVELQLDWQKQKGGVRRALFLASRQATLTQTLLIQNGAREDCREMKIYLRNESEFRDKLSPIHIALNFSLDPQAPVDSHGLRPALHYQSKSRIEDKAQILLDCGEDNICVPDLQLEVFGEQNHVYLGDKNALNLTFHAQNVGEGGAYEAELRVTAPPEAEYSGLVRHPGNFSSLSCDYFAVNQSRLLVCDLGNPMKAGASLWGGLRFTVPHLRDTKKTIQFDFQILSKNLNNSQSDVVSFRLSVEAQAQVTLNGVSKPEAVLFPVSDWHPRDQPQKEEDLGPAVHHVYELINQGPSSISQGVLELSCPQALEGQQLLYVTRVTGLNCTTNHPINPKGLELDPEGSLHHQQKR
Target sequence in this assay (P08648 895-1049 limits assumed): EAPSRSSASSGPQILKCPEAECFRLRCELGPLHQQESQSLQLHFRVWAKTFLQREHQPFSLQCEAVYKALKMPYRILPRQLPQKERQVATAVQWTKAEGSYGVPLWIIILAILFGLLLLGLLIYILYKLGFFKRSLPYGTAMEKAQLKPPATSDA
In addition to the inhibition of cell attachment to natural ligands, attachment and inhibition assays were performed using the […] [SEQ ID NO:6] peptide as substrate. The microliter well were coated with […] [SEQ ID NO:6] using glutaraldehyde as described above. Briefly, peptide was coated on plastic by incubating at 37° C. for 2 hours in phosphate buffered saline containing 0.25% glutaraldehyde to crosslink the peptide and free binding sites on the plastic were blocked using BSA. The wells were then saturated with BSA followed by the addition of 50,000 B2/α27 or B2/Cl cells in the presence or absence of the indicated inhibitor. […] Bound cells were quantitated by staining with 0.1% amido black.

[5] = target: αvβ5 integrin (Homo sapiens, UniProt P06756+P18084); assay: Inhibition of peptide-displaying phage binding to αvβ5 integrin by synthetic peptides; parameters: The αvβ3, αvβ5 and α5β1 integrins were isolated from human placental extracts; from tissue; host or cells: human placenta; details: more potent than *CRGDC*; FIG. 10
Procedure: Phage containing the […] [SEQ ID NO:10] sequence were incubated for 1 hour in integrin-coated wells in the presence of the competing peptides or dimethyl sulfoxide solvent as a control. The bound phage were determined as described herein.
In addition, most of the phage-binding activity in the αvβ3 preparation was captured into microliter wells coated with antibodies against the αv or β3 subunits as described previously (Koivunen et al., J. Biol. Chem., 268:20205–10 (1993). The αIIbβ3 integrin was isolated from outdated platelets (Pytela et al., Science, 231:1559–1562 (1986)).
Binding of individual cloned phage to integrins was studied in microliter wells as described in Koivunen et al., J. Cell. Biol., 124:373–380 (1994). Phage binding to α5β1 and αvβ3 were assayed in TBS buffer containing 1% BSA and 1 mM MnCl2 and binding to αvβ5 in the presence of 1 mM CaCl2. Phage that were bound were determined by their ability to infect F-pilus positive K91kan bacteria. Bacteria were grown overnight in microliter wells in the presence of tetracycline and the absorbance indicative of bacterial growth was read at 600 nm with an ELISA plate reader.

αvβ3 integrin, sequence (P06756 31-889 limits assumed): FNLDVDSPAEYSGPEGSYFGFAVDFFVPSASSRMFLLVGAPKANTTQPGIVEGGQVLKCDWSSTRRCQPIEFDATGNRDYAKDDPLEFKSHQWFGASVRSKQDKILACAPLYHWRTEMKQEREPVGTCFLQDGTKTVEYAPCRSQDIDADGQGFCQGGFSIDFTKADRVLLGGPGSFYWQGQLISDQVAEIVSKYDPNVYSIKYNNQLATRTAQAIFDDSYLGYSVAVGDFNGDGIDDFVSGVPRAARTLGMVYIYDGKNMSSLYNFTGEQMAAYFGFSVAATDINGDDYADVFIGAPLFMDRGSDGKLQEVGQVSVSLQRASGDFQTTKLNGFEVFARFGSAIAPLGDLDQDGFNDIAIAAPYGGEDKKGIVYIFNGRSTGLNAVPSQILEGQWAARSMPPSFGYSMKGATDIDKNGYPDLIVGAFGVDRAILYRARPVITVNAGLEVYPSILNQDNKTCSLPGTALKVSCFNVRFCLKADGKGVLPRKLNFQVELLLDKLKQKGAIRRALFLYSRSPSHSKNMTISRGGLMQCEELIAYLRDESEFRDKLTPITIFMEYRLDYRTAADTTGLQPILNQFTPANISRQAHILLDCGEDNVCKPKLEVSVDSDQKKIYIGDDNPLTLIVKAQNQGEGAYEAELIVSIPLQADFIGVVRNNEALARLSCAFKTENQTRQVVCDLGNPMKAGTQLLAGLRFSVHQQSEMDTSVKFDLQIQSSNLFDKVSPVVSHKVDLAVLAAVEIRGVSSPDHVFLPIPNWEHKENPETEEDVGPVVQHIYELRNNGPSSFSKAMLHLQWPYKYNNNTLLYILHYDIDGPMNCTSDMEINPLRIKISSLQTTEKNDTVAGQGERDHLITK
αvβ3 integrin, sequence (P06756 891-1048 partner limits assumed): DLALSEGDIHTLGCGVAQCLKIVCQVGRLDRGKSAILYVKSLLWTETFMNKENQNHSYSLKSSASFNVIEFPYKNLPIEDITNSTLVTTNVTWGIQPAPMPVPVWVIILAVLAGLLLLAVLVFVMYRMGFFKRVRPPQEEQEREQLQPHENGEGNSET
αvβ3 integrin, sequence (P05106 27-788): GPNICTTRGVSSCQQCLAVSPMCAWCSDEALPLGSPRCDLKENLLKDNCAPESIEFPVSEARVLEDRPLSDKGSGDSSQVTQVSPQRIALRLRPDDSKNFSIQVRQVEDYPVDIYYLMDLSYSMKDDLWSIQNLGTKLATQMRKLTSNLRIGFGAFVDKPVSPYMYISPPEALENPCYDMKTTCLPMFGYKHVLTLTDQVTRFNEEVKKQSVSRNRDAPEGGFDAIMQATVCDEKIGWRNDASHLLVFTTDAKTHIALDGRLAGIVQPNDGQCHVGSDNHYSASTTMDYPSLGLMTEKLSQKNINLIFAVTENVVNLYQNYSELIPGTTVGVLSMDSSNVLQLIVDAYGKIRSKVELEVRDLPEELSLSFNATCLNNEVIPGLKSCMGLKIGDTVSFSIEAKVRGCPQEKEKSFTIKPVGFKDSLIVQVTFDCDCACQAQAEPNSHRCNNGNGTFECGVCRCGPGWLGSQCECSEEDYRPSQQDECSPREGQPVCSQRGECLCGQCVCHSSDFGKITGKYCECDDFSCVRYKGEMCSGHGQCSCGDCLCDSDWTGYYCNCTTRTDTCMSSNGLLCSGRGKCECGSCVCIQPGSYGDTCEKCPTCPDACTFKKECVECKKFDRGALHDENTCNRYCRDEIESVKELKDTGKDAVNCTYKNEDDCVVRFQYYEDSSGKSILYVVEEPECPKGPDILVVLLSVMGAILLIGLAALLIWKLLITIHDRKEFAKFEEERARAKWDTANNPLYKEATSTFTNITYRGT
T1 sequence (P11688 45-898 limits assumed): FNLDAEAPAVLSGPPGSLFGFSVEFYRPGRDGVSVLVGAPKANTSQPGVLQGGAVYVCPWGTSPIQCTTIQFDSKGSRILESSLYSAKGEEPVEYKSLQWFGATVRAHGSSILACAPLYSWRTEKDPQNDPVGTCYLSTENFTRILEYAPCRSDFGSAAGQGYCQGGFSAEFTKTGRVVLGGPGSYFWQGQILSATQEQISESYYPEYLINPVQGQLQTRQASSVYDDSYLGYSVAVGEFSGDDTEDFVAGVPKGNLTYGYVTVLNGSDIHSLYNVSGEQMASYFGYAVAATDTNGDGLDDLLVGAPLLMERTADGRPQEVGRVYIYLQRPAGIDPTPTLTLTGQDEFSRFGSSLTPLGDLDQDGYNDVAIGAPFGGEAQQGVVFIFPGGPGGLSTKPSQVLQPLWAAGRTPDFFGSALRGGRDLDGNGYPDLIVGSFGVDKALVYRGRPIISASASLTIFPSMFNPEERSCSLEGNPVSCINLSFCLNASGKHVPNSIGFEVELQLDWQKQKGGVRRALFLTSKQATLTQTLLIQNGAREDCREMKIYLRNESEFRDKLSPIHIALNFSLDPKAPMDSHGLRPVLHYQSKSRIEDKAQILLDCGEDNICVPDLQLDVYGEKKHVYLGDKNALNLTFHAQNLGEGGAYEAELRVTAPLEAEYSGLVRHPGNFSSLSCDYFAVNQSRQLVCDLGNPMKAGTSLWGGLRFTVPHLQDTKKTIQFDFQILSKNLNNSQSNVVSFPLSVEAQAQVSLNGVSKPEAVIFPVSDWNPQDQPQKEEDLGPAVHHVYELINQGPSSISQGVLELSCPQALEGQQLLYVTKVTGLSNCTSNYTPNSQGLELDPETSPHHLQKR
T1 sequence (P11688 899-1053 partner limits assumed): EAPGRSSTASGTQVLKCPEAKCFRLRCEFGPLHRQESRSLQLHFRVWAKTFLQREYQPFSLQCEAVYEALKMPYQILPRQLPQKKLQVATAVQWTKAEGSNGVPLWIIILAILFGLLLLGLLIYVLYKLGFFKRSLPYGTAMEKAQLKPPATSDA
T1 sequence (P09055 21-798): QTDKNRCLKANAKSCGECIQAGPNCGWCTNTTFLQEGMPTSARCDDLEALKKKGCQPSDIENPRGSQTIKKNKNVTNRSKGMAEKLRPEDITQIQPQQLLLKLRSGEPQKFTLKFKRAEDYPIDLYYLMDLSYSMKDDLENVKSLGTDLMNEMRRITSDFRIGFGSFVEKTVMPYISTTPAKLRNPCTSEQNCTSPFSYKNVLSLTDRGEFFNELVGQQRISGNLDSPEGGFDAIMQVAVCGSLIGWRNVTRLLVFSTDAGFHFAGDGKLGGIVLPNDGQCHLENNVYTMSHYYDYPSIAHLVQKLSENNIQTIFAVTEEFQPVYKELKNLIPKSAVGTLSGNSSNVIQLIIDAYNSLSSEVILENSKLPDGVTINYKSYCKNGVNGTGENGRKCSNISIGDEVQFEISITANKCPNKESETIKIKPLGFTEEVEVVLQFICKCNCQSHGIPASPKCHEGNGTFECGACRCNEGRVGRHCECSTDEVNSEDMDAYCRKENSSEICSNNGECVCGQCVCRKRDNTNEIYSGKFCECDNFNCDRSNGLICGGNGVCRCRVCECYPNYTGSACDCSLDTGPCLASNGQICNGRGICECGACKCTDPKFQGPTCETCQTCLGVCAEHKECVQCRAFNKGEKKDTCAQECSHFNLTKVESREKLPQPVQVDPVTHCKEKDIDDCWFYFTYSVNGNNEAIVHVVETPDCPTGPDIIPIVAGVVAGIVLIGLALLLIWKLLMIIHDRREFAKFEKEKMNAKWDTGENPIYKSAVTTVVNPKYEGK

## A*CPSRLDSPC*G (ACPSRLDSPCG; disulfide 2-10 (inferred))
[1]; vitronectin
  concentration at which inhibitory activity was shown: higher than 1 mM

## GACRRETAWACGA
[2]; 110 kDa fragment containing the cell attachment domain
  inhibition of cell attachment to a 110 kDa fragment of fibronectin: inhibited
[2]; A375-M cells (also express α4β1)
  inhibition of attachment of A375-M cells to fibronectin: only partially inhibited
[2]; B2/α27 cells, fibronectin, FIG. 5
  efficiency at inhibiting binding to α5β1 compared with cyclic CRGDCL peptide: more efficient
[2]; linearized vs cyclic peptide
  binding activity following reduction of the disulfide bond and alkylation of the cysteine residues: greatly decreased
  reduction of activity after reduction and alkylation of the disulfide bond: about 50 ×
[3]
  blocking of attachment of NIH 3T3 cells to fibronectin: could not block
[4]; B2/α27 compared with B2/Cl cells, FIG. 8
  promotion of cell adhesion by immobilized peptide: promoted α5β1-mediated adhesion
[4]; immobilized peptide
  attachment of cell lines lacking these integrins or expressing non-human α5β1 to immobilized peptide: did not attach
[4]; inhibitor at 1 mM, FIG. 8
  inhibition of B2/α27 attachment to immobilized RRETAWA-containing peptide: inhibited

## C[C@H](N)C(=O)N[C@H]1CSSC[C@@H](C(=O)NCC(=O)O)NC(=O)[C@H](Cc2ccccc2)NC(=O)[C@@H]2CSSC[C@H](NC(=O)[C@H](CC(=O)O)NC1=O)C(=O)N[C@@H](CCCNC(=N)N)C(=O)NCC(=O)N[C@@H](CC(=O)O)C(=O)N2 (H-ACDCRGDCFCG-OH; disulfide 2-10, 4-8)
[2]; cell attachment to fibronectin
  activity toward α5β1 compared to *CRGDC*: significantly decreased activity
  activity toward α5β1 compared to linear GRGDSP: only slightly better
[1]; more effective than *CRGDC*
  effectiveness relative to *CRGDC* in IMR-90 attachment to vitronectin: 20 fold
[5]
  potency in inhibiting binding of RGD-containing phage to αvβ5 relative to *CRGDC*: 10 fold
